Test results published in patent US9487489B2, “Halogen-substituted pyrazole derivatives as pest-control agents” (BAYER CROPSCIENCE AKTIENGESELLSCHAFT, priority 2013, dated 2016).
“And” between values parts separate entries of the source, which are not always exact repeats. Equal entries are not always repeated.

Key:
[1] = tested on: larvae of the mustard beetle (Phaedon cochleariae); experiment: Phaedon cochleariae spray test (PHAECO); type: in vivo; details: Chinese cabbage leaf discs, after 7 days
Outline: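 Compound dissolved in acetone/dimethylformamide with alkylaryl polyglycol ether emulsifier, made up in water containing 1000 ppm emulsifier, then diluted to test concentrations and sprayed against mustard beetle larvae. Efficacy (% larvae killed) scored after 7 days.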

[2] = tested on: greenhouse red spider mite (Tetranychus urticae); experiment: Tetranychus urticae spray test, OP-resistant (TETRUR); type: in vivo; details: bean leaf discs, after 6 days
Outline: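 Bean leaf discs carrying all stages of OP-resistant Tetranychus urticae were sprayed with compound formulated in acetone/dimethylformamide and diluted in water with 1000 ppm alkylaryl polyglycol ether emulsifier. Mortality (% efficacy, 100% = all mites killed) scored after 6 days.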

[3] = tested on: adult cat fleas (Ctenocephalides felis); experiment: Ctenocephalides felis in vitro contact test with adult cat fleas (T1); details: after 48 h
Outline: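 Test compound was dissolved in acetone p.a. (9 mg per 1 ml) and diluted as needed. 250 μl was spread evenly over the inner walls and floor of a 25 ml test tube by rotating on an orbital shaker for 2 h at 30 rpm. Once the solvent evaporated, 5-10 adult Ctenocephalides felis were added. Tubes were capped with a perforated plastic lid and kept horizontal at room temperature and ambient humidity.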

[4] = tested on: bont tick nymphs (Amblyomma hebraeum); details: after 48 h
[5] = tested on: adult dog ticks (Rhipicephalus sanguineus); experiment: Rhipicephalus sanguineus in vitro contact test with adult brown dog ticks (T2); details: after 48 h
Outline: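 Acetone solutions coated onto test tube walls and floor, giving 5 μg/cm^2 at 900 ppm. Five to ten adult ticks held per tube in the dark at room temperature for 48 h, then heated at 45-50° C for up to 5 min; efficacy is the percentage of dead or moribund ticks unable to climb away.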

[6] = tested on: caterpillars of the armyworm (Spodoptera frugiperda); experiment: Spodoptera frugiperda spray test (SPODFR); type: in vivo; details: maize leaf discs, after 7 days
Outline: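 Maize leaf discs sprayed with compound in acetone/DMF with alkylaryl polyglycol ether emulsifier (1000 ppm) in water, dried, then infested with armyworm caterpillars. Mortality (%) scored after 7 days; 100% = all caterpillars killed, 0% = none killed.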

[7] = tested on: engorged adult female cattle ticks (Boophilus microplus); experiment: Boophilus microplus injection test (BOOPMI Inj); type: in vivo; details: application rate 20 μg/animal; injection into abdomen; assessed after 7 days
Outline: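 DMSO solution of compound (1 μl) injected into the abdomen of 5 engorged adult female ticks, which are then held in a climate-controlled room. After 7 days, efficacy is scored from laying of fertile eggs, with unclear eggs kept until larval hatch (~42 days); 100% means no fertile eggs, 0% all fertile.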

[8] = tested on: L1 larvae of the Australian sheep blowfly (Lucilia cuprina); experiment: Lucilia cuprina test (LUCICU); type: in vivo; details: application rate 100 ppm; after 2 days
Outline: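 About 20 L1 larvae placed in a vessel with minced horsemeat plus compound (DMSO concentrate diluted with water to the desired concentration). Kill in % scored after 2 days, 100% meaning all larvae dead.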

[9] = tested on: adult houseflies (Musca domestica); experiment: Musca domestica test (MUSCDO); type: in vivo; details: application rate 100 ppm; after 2 days
Outline: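 Compound dissolved in DMSO and diluted with water to the test concentration, applied with sugar solution on a sponge; 10 adult houseflies per vessel. Mortality scored after 2 days as % kill (100% all dead, 0% none).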

[10] = tested on: adult cat fleas (Ctenocephalides felis); experiment: Ctenocephalides felis oral test (CTECFE); type: in vivo; details: application rate 100 ppm in citrated cattle blood; after 2 days
Outline: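 About 20 unfed adult cat fleas fed through parafilm membrane on citrated cattle blood containing compound (DMSO stock diluted in blood to test concentration). Kill % scored after 2 days (100% = all fleas dead).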

[11] = logP determination by HPLC on a reversed-phase column (C18), EEC Directive 79/831 Annex V.A8; type: physicochemical
Outline: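 Retention on a C18 reversed-phase column (Zorbax Eclipse Plus, 1.8 micron) was used, eluting with acetonitrile/water, each containing formic acid. The gradient ran from 10% to 95% acetonitrile over 4.25 min, then held 1.25 min, at 55° C and 2.0 ml/min, with MS detection.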

[12] = tested on: cattle ticks (Boophilus microplus) Parkhurst strain, SP-resistant; experiment: Boophilus microplus dip test (BOOPMI Dip); type: in vivo; details: application rate 100 ppm, assessed after 7 days
Experimental: B. Boophilus microplus-dip Test (BOOPMI Dip)
Test animals: cattle ticks (Boophilus microplus) Parkhurst strain, SP-resistant
Solvent: dimethyl sulphoxide
10 mg of active compound are dissolved in 0.5 ml of dimethyl sulphoxide. For the purpose of preparing a suitable formulation, the active compound solution is diluted with water to the concentration desired in each case.
This active compound preparation is pipetted into tubes. 8-10 adult engorged female cattle ticks (Boophilus microplus) are transferred into a further tube with holes. The tube is immersed into the active compound formulation, and all ticks are completely wetted. After the liquid has run out, the ticks are transferred on filter discs into plastic dishes and stored in a climate-controlled room.
The activity is assessed after 7 days by laying of fertile eggs. Eggs whose fertility is not visible from the outside are stored in a climate-controlled cabinet until the larvae hatch after about 42 days. An efficacy of 100% means that none of the ticks has laid any fertile eggs; 0% means that all eggs are fertile.

[13] = tested on: green peach aphid (Myzus persicae); experiment: Myzus persicae spray test (MYZUPE); type: in vivo; details: Chinese cabbage leaf discs, after 6 days
Outline: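 Chinese cabbage leaf discs infested with all aphid stages sprayed with compound in acetone/DMF with alkylaryl polyglycol ether emulsifier in water. Efficacy (% aphids killed; 100% all dead, 0% none) scored after 6 days.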

[14] = HPLC on reversed-phase column (C18), acetonitrile/water with formic acid, EEC Directive 79/831 Annex V.A8

| SMILES | efficacy in % ([1]; application rate 100 g/ha) [%] | efficacy in % ([2]; application rate 100 g/ha) [%] | efficacy (dead or moribund fleas) ([3]; application rate 5 μg/cm^2) [%] | efficacy (dead or moribund ticks) [4] | efficacy (dead or moribund ticks) ([5]; application rate 1 μg/cm^2) [%] | efficacy in % ([6]; application rate 100 g/ha) [%] | efficacy (laying of fertile eggs) [7] [%] | efficacy (kill in %) [8] [%] | efficacy (kill in %) [9] [%] | efficacy (kill in %) [10] [%] | logP [11, 14] | efficacy (dead or moribund fleas) ([3]; application rate 1 μg/cm^2) [%] | efficacy (laying of fertile eggs) [12] [%] | efficacy in % ([13]; application rate 100 g/ha) [%] | logP ([11]; HPLC, reversed-phase C18, acetonitrile (0.1% formic acid)/water (0.09% formic acid) gradient) | efficacy (dead or moribund ticks) ([5]; application rate 5 μg/cm^2) [%] | efficacy in % ([1]; application rate 500 g/ha) [%] | efficacy in % ([2]; application rate 500 g/ha) [%] | efficacy in % ([6]; application rate 500 g/ha) [%] | efficacy in % ([13]; application rate 500 g/ha) [%] |
| --- | --- | --- | --- | --- | --- | --- | --- | --- | --- | --- | --- | --- | --- | --- | --- | --- | --- | --- | --- | --- |
| Cn1nc(C(F)(F)C(F)(F)F)c(C(F)(F)F)c1-n1cc(-c2ccc(Cl)c(C(=O)NC3(C(F)(F)F)CC3)c2)cn1 [Ic-32] | 100 | 100 | 80 | 100% | 80 | 100 | 100 | 100 | 100 | 100 | 4.29 | – | – | – | – | – | – | – | – | – |
| Cn1nc(C(F)(F)C(F)(F)F)c(C(F)(F)F)c1-n1cnc(-c2ccc(Cl)c(C(=O)NC3(C#N)CC3)c2)c1 [Ib-2] | 100 | 100 | 100 | 100% | – | 100 | 100 | 100 | 100 | 100 | – | 100 | 100 | 90 | 3.38 | – | – | – | – | – |
| Cn1nc(C(F)(F)C(F)(F)F)c(C(F)(F)F)c1-n1cc(-c2ccc(Cl)c(C(=O)NCCF)c2)cn1 [Ic-77] | – | 100 | 100 | – | 100 | 100 | 100 | 100 | 100 | 100 | 3.67 | 100 | 100 | 100 | – | 100 | – | – | – | – |
| Cn1nc(C(F)(F)C(F)(F)F)c(C(F)(F)F)c1-n1cc(-c2ccc(Cl)c(C(=O)NCc3ccccc3)c2)cn1 [Ic-3] | 100 | 90 | – | 100% and 80% | – | 100 | 100 | 100 | 100 | 100 | 4.39 | – | – | – | – | – | – | – | – | – |
| Cn1nc(C(F)(F)C(F)(F)F)c(C(F)(F)F)c1-n1cc(-c2cccc(C(=O)NC3(C#N)CC3)c2)cn1 [Ic-19] | 100 | 100 | 100 | 100% | 100 | 100 | 100 | 100 | 100 | 100 | 3.61 | 100 | – | – | – | 80 | – | – | – | – |
| Cn1nc(C(F)(F)C(F)(F)F)c(C(F)(F)F)c1-n1cc(-c2ccc(Cl)c(C(=O)NCC#N)c2)cn1 [Ic-147] | – | – | 100 | – | 80 | – | 100 | 100 | 100 | 100 | – | 100 | 100 | 90 | – | – | 100 | 100 | 100 | 100 |
